Series [1] relates to anemic HCV infected patients receiving combination RBV/IFN alfa-2b. The experiment in a line: Open-label, randomized, parallel-group study of PROCRIT once weekly versus standard of care in hepatitis C patients on ribavirin/interferon alfa-2b. The class given is in vivo, human.
Series [2] relates to patients co-infected with HIV and HCV. As to conditions: cited from earlier work.
In series [3] the test system is subjects treated with REBETRON for chronic hepatitis C. As to conditions: either ribavirin, interferon, or both agents; cited from earlier work.
The target in a further series is T1, TNFβ (lymphotoxin α) (Homo sapiens, UniProt P01374).
T1 sequence (P01374 35-205): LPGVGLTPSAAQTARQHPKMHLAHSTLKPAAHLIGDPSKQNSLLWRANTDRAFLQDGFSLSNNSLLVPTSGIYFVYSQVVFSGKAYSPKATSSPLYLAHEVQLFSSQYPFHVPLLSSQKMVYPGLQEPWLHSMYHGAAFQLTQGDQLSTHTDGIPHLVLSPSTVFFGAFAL
As to conditions: cited from earlier work.

The conditions of series [4]: in vivo, 5 mg/kg; cited from earlier work.
[5] abbreviates: last available time point vs baseline, PROCRIT 40,000 Units qw s.c., N=22.

As for Epoetin alfa [PROCRIT], the “hemoglobin levels (in words)” value in series [1] (anemic patients on Ribavirin/INF-alpha, FIG. 1) is given as “increase their hemoglobin levels to near normal levels”. Also, in series [1] (baseline, before PROCRIT, N=25), the “Hb Range” value lay in the range of 9.1 to 12.0 g/dL and the “Mean Hb” value amounted to 11 g/dL. Moreover, in series [1] (setting [5]), the “Change Hb Range” value was -1.4 to 6.2 g/dL and the “Mean change Hb” value is given as 2.4 g/dL. Also, the “Hb Range” value in series [1] (last available time point, PROCRIT 40,000 Units qw s.c., N=22) was 7.7 to 16.8 g/dL. Further, the “Mean Hb” value in series [1] (last available time point, analysis after 16 weeks, PROCRIT 40,000 Units qw s.c., N=22) is 13.5 g/dL. In series [1] (reported even before hemoglobin levels improved), the patient well being entry is given as “demonstrated better well being”. The “ability to maintain Ribavirin dosing” value in series [1] (throughout the study period, FIG. 2) is listed as “increased ability to maintain Ribavirin dosing”. For the same molecule, the “hemoglobin (Hb) value at initiation of r-HuEPO” value in series [2] (before r-HuEPO 40,000 U once weekly) is on record as 10 g/dL. The “hemoglobin (Hb) value after r-HuEPO treatment” value in series [2] (r-HuEPO 40,000 U once weekly, after a median of four weeks) is on record as 12.7 g/dL.
With `NC(=O)c1ncn([C@@H]2O[C@H](CO)[C@@H](O)[C@H]2O)n1` [REBETOL, 1β-D-ribofuranosyl 1H-1,2,4-Triazole-3-carboxamide], the “patients requiring a dose modification” value in series [3] is reported as “about 26%”.
For “Infliximab: monoclonal antibody that blocks the biological activity of circulating TNFα”, in the series with TNFβ (lymphotoxin α), the “neutralization of TNFβ (lymphotoxin α)” value is “does not neutralize”. In addition, in series [4], the “median Cmax” value is 118 µg/mL, the “median Vd (volume of distribution at steady state)” value is 3.0 L and the terminal half-life was 228 h.

These data come from patent US20020052317A1, “Anti-viral and anti-tumor chemotherapy by administration of erythropoeitin” (priority 2000, published 2002).
